Test system: telo24 DNA (DNA, G4) TTAGGGTTAGGGTTAGGGTTAGGG
Experiment: UV-vis titration
Details: K+ 100 mM; 10 mM HEPES pH 7.4, 1 mM Na2EDTA; 5 μM porphyrin; error is SE

- Kd: 0.93 (0.18) μM
SMILES: C[n+]1ccc(-c2c3nc(c(-c4cc[n+](C)cc4)c4ccc([nH]4)c(-c4cc[n+](C)cc4)c4nc(c(-c5cc[n+](C)cc5)c5ccc2[nH]5)C=C4)C=C3)cc1
